Data taken from ChEMBL document CHEMBL5365407, “Design, synthesis and biological evaluation of nitric oxide-releasing 5-cyano-6-phenyl-2, 4-disubstituted pyrimidine derivatives” (Bioorg Med Chem Lett, 2023).
The source made the active and inactive calls. No cut-off for these calls is given here.

Legend:
[1] = molecular target: Lysine-specific histone demethylase 1A (Homo sapiens, UniProt O60341); test: Inhibition of LSD1 (unknown origin)
[2] = test system: Bel7402/5-FU; test: Antiproliferative activity against human BEL-7402/5-FU cell; type: functional, cell-based
[3] = molecular target: T1, Tyrosine-protein kinase JAK3 (Homo sapiens, UniProt P52333); test: biochemical; type: cell-based, Sf9
T1 sequence (P52333 whole entry): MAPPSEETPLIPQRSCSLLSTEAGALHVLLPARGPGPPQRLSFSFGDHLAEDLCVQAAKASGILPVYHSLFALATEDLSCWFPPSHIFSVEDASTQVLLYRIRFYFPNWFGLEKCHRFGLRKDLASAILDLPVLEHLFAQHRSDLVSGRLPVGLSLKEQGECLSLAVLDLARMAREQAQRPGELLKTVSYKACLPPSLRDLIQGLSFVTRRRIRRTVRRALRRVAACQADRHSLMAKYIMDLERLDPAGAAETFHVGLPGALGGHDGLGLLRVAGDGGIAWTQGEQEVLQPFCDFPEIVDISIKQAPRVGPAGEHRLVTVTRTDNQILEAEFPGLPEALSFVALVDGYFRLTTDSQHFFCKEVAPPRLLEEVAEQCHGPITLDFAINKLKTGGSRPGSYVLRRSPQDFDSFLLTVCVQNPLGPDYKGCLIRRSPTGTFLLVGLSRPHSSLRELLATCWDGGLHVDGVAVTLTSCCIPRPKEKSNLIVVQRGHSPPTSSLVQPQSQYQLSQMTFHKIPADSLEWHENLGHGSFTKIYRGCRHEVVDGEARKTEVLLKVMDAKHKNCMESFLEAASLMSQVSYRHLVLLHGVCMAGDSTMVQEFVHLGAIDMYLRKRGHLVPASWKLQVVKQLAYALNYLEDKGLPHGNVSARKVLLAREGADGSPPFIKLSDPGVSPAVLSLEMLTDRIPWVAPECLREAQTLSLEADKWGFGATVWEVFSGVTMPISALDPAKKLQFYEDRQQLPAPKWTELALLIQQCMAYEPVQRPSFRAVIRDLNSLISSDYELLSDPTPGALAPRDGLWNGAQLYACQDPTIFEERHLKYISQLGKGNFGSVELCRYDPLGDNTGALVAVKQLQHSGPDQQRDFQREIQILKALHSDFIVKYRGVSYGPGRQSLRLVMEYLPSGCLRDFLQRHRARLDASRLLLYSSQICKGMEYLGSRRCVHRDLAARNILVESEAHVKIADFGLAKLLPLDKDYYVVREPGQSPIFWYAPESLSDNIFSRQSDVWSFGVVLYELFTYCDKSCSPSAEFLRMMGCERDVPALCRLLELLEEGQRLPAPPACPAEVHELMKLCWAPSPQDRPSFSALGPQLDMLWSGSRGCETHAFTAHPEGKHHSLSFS
Description: Inhibition of recombinant human N-terminal GST-tagged JAK3 (781 to end residues) expressed in baculovirus infected Sf9 cells using poly (Glu,Tyr) 4:1 as substrate incubated for 60 mins in presence of ATP by ADP-Glo kinase assay

[4] = test system: MGC-803; test: Induction of apoptosis in human MGC-803 cells assessed as early apoptotic cells at 1 uM by Annexin V-FITC/PI staining based flow cytometric analysis (reference value: 2.79%); type: functional
[5] = test system: MGC-803; test: Induction of cell cycle arrest in human MGC-803 cells assessed as accumulation of cells at G2/M phase at 1 uM incubated for 24 hrs by PI staining based flow cytometry analysis (reference value: 14.32 %); type: functional
[6] = test system: MGC-803; test: Induction of morphological changes in human MGC-803 cells assessed as nuclear condensation at 0.5 to 2 uM incubated for 48 hrs by DAPI staining based fluorescence microscopy; type: functional, cell-based; details: dose 0.5-2 µM
[7] = test system: MGC-803; test: Induction of apoptosis in human MGC-803 cells assessed as late apoptotic cells at 1 uM by Annexin V-FITC/PI staining based flow cytometric analysis (reference value: 2.14 %); type: functional
[8] = test system: PC-3; test: Antiproliferative activity against human PC-3 cells measured after 72 hrs by MTT assay; type: functional, cell-based; details: PC-3, 72 h
[9] = test system: MGC-803; test: Induction of apoptosis in human MGC-803 cells assessed as early apoptotic cells at 2 uM by Annexin V-FITC/PI staining based flow cytometric analysis (reference value: 2.79%); type: functional
[10] = test system: MGC-803; test: Antiproliferative activity against human MGC-803 cells assessed as reduction in colony area at 0.5 to 2 uM by crystal violet staining based assay; type: functional, cell-based; details: dose 0.5-2 µM
[11] = test system: MGC-803; test: Induction of cell cycle arrest in human MGC-803 cells assessed as accumulation of cells at G0/G1 phase at 2 uM incubated for 24 hrs by PI staining based flow cytometry analysis (reference value: 56.68 %); type: functional
[12] = test system: MCF7; test: cells; details: Homo sapiens, MCF7, 72 h
Description: Antiproliferative activity against human MCF7 cells measured after 72 hrs by MTT assay

[13] = test system: MGC-803; test: Induction of cell cycle arrest in human MGC-803 cells assessed as accumulation of cells at G0/G1 phase at 0.5 uM incubated for 24 hrs by PI staining based flow cytometry analysis (reference value: 56.68 %); type: functional
[14] = Induction of NO release in phosphate buffer containing excess L-cysteine measured up to 14 hrs by Griess assay; type: functional
[15] = test system: MGC-803; test: Induction of apoptosis in human MGC-803 cells assessed as viable cells at 1 uM by Annexin V-FITC/PI staining based flow cytometric analysis (reference value: 94.4%); type: functional; details: read-out: Activity
[16] = test system: MGC-803; test: Induction of apoptosis in human MGC-803 cells assessed as necrotic cells at 1 uM by Annexin V-FITC/PI staining based flow cytometric analysis (reference value: 0.69%); type: functional
[17] = test system: MGC-803; test: Induction of apoptosis in human MGC-803 cells assessed as viable cells at 2 uM by Annexin V-FITC/PI staining based flow cytometric analysis (reference value: 94.4%); type: functional; details: read-out: Activity
[18] = test system: MGC-803; test: Antiproliferative activity against human MGC-803 cells assessed as decrease in number of colonies by crystal violet staining based assay; type: functional, cell-based; details: dose 0.5-2 µM
[19] = test system: MGC-803; test: Induction of morphological changes in human MGC-803 cells assessed as appearance of broken cell at 0.5 to 2 uM incubated for 48 hrs by DAPI staining based fluorescence microscopy; type: functional; details: dose 0.5-2 µM
[20] = test system: MGC-803; test: Induction of cell cycle arrest in human MGC-803 cells assessed as accumulation of cells at G2/M phase at 2 uM incubated for 24 hrs by PI staining based flow cytometry analysis (reference value: 14.32 %); type: functional
[21] = test system: MGC-803; test: cells; details: Homo sapiens, MGC-803, 72 h
Description: Antiproliferative activity against human MGC-803 cells measured after 72 hrs by MTT assay

[22] = test system: MGC-803; test: Induction of cell cycle arrest in human MGC-803 cells assessed as accumulation of cells at G2/M phase at 0.5 uM incubated for 24 hrs by PI staining based flow cytometry analysis (reference value: 14.32 %); type: functional
[23] = test system: MGC-803; test: Induction of cell cycle arrest in human MGC-803 cells assessed as accumulation of cells at G0/G1 phase at 1 uM incubated for 24 hrs by PI staining based flow cytometry analysis (reference value: 56.68 %); type: functional
[24] = test system: MGC-803; test: Induction of apoptosis in human MGC-803 cells by Annexin V-FITC/PI staining based flow cytometric analysis; type: functional, cell-based; details: dose 0.5-2 µM
[25] = test system: MGC-803; test: Induction of apoptosis in human MGC-803 cells assessed as late apoptotic cells at 2 uM by Annexin V-FITC/PI staining based flow cytometric analysis (reference value: 2.14 %); type: functional
[26] = test system: MGC-803; test: Induction of cell cycle arrest in human MGC-803 cells assessed as accumulation of cells at S phase at 2 uM incubated for 24 hrs by PI staining based flow cytometry analysis (reference value: 29.00 %); type: functional
[27] = test system: MGC-803; test: Induction of apoptosis in human MGC-803 cells assessed as necrotic cells at 0.5 uM by Annexin V-FITC/PI staining based flow cytometric analysis (reference value: 0.69%); type: functional
[28] = test system: MGC-803; test: Induction of cell cycle arrest in human MGC-803 cells assessed as accumulation of cells at S phase at 1 uM incubated for 24 hrs by PI staining based flow cytometry analysis (reference value: 29.00 %); type: functional
[29] = test system: MGC-803; test: Induction of apoptosis in human MGC-803 cells assessed as late apoptotic cells at 0.5 uM by Annexin V-FITC/PI staining based flow cytometric analysis (reference value: 2.14 %); type: functional
[30] = test system: MGC-803; test: Induction of reactive oxygen species generation in human MGC-803 cells by DCFH-DA staining fluorescence assay; type: functional, cell-based; details: dose 0.5-2 µM
[31] = test system: MGC-803; test: Induction of apoptosis in human MGC-803 cells assessed as early apoptotic cells at 0.5 uM by Annexin V-FITC/PI staining based flow cytometric analysis (reference value: 2.79%); type: functional
[32] = test system: MGC-803; test: Induction of apoptosis in human MGC-803 cells assessed as necrotic cells at 2 uM by Annexin V-FITC/PI staining based flow cytometric analysis (reference value: 0.69%); type: functional
[33] = test system: MGC-803; test: Antiproliferative activity against human MGC-803 assessed as reduction in cell survival measured after 24 hrs in presence of NO scavenger hemoglobin at 1 to 20 uM by MTT assay; type: functional, cell-based
[34] = test system: MGC-803; test: Induction of morphological changes in human MGC-803 cells assessed as appearance of dense and concentrated granules at 0.5 to 2 uM for 48 hrs by DAPI staining based fluorescence microscopy; type: functional, cell-based; details: dose 0.5-2 µM
[35] = test system: MGC-803; test: Induction of apoptosis in human MGC-803 cells assessed as viable cells at 0.5 uM by Annexin V-FITC/PI staining based flow cytometric analysis (reference value: 94.4%); type: functional; details: read-out: Activity
[36] = test system: ECa-109 cell line; test: Antiproliferative activity against human Eca-109 cells measured after 72 hrs by MTT assay; type: functional, cell-based; details: ECa-109, 72 h
[37] = test system: MGC-803; test: Induction of morphological changes in human MGC-803 cells assessed as nuclear shrinkage at 0.5 to 2 uM incubated for 48 hrs by DAPI staining based fluorescence microscopy; type: functional, cell-based; details: dose 0.5-2 µM
[38] = test system: MGC-803; test: Induction of cell cycle arrest in human MGC-803 cells assessed as accumulation of cells at S phase at 0.5 uM incubated for 24 hrs by PI staining based flow cytometry analysis (reference value: 29.00 %); type: functional
[39] = test system: MGC-803; test: Antiproliferative activity against human MGC-803 assessed as cell survival by MTT assay relative to control; type: functional

COc1ccc(/C=N/NC2NC(SCC(C)C)=NC(c3ccc(OC)cc3)=C2C#N)cc1 (centres undefined)
IC50 [1]: 0.956 µM

O=C1C(NCCOc2no[n+]([O-])c2S(=O)(=O)c2ccccc2)=CC(=O)c2ncccc21
IC50 [2]: 0.42 µM

N#Cc1ccccc1Nc1nc(Nc2ccc(NC(=O)CN3CCOCC3)cc2)ncc1Cl
IC50 [3]: 0.0207 µM

COc1cc(Nc2nc(SCC(=O)N3CCN(CCOc4no[n+]([O-])c4S(=O)(=O)c4ccccc4)CC3)nc(-c3ccccc3)c2C#N)cc(OC)c1OC
Activity [4]: 7.71%
Activity [5]: 14.43%
Activity [6]: Active
Activity [7]: 24%
IC50 [8]: 1.14 µM
Activity [9]: 10.4%
Activity [10]: Active
Activity [11]: 74.33%
IC50 [12]: 2.03 µM
Activity [13]: 60.59%
Activity [14]: Active
viability at 1 µM [15]: 65.1%
Activity [16]: 3.21%
viability at 2 µM [17]: 58.3%
Activity [18]: Dose-Dependent Effect
Activity [19]: Active
Activity [20]: 10.4%
IC50 [21]: 0.95 µM
Activity [22]: 14.58%
Activity [23]: 65.87%
Activity [24]: Dose-Dependent Effect
Activity [25]: 28.7%
Activity [26]: 15.27%
Activity [27]: 3.22%
Activity [28]: 19.71%
Activity [29]: 15.1%
Activity [30]: Dose-Dependent Effect
Activity [31]: 6.5%
Activity [32]: 2.69%
Activity [33]: inactive
Activity [34]: Active
viability at 0.5 µM [35]: 75.2%
IC50 [36]: 2.21 µM
Activity [37]: Active
Activity [38]: 24.83%
Activity [39]: 20%
